{"source": "paper PMC3726224", "about": "(Developmental cell, 2013)", "assay_type_in_all_cases": "biochemical", "key": {"ALR": {"target": "ALR (Homo sapiens, UniProt P55789)", "sequence (P55789 whole entry)": "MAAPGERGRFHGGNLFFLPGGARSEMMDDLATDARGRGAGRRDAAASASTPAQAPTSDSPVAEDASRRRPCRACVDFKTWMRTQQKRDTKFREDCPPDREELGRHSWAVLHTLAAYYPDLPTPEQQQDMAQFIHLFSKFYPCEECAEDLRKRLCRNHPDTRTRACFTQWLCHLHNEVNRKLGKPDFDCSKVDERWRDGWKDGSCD", "assay": "Amplex Red-HRP sulfhydryl oxidase assay"}, "Erv2": {"target": "T1, Erv2 (Saccharomyces cerevisiae, UniProt Q12284)", "T1 sequence (Q12284 1-196)": "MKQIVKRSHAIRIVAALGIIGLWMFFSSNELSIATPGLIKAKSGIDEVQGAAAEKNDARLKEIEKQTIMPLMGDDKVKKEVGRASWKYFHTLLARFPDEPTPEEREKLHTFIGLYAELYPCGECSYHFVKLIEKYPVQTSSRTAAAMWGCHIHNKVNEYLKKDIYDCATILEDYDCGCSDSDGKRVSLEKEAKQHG", "assay": "Amplex Red-HRP sulfhydryl oxidase assay"}, "Erv1": {"target": "T2, Erv1 (Saccharomyces cerevisiae, UniProt P27882)", "T2 sequence (P27882 1-189)": "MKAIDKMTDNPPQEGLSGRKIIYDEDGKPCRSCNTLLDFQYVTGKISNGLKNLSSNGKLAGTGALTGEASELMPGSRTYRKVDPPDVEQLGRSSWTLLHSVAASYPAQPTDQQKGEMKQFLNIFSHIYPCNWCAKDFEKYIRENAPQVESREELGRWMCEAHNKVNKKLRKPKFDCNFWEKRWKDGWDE", "assay": "Amplex Red-HRP sulfhydryl oxidase assay with recombinant Erv1"}}, "data": [{"smiles": "Oc1c(Cl)cc(Cl)cc1C=Nc1ccc(Nc2ccccc2)cc1", "note": "[MitoBloCK-6]", "values": [{"measurement": "IC50", "setting": "ALR", "result": 700, "unit": "nM"}, {"measurement": "IC50", "setting": "Erv2", "result": 1400, "unit": "nM"}, {"measurement": "IC50", "setting": "Erv1", "result": 900, "unit": "nM"}]}]}
